Several values for one entry are separate records, joined by “and”; a condition that tells them apart may be missing. Equal values may be shown once. Read-outs that look alike come from different tables or passages of the source.

One data set relates to HEV-3 replicon p6-Gluc. As to the kind of experiment: microbe, parasite or virus in culture. Type of data set: cell-based, Hepatitis E virus.
The next data set in a line: in vitro. The conditions noted are these: human.

One may read the EC50 as the concentration at which the effect is half-maximal. As usually defined, the EC90 is the point of the concentration-response curve where the effect stands at 90%. As for “(±)-(1R,2R,3S,3aR,8bS)-1,8b-Dihydroxy-N,6,8-trimethoxy-3a-(4-methoxyphenyl)-3-phenyl-2,3,3a,8b-tetrahydro-1H-cyclopenta[b]benzofuran-2-carboxamide [(±)-CR-31-B (rac-1c), reference compound]”, the EC50 in the data set on HEV-3 replicon p6-Gluc (read-out: EC50) was 6.1 nM and 3.7 nM. In addition, in the data set on HEV-3 replicon p6-Gluc (read-out: EC90), the EC90 is 27.3 nM and 29 nM.

On to `COC(=O)[C@H]1[C@@H](O)[C@@]2(O)c3c(Br)cc(OC)cc3O[C@@]2(c2ccc(OC)cc2)[C@@H]1c1ccccc1` (racemic) [9l, (±)-Methyl (1R,2R,3S,3aR,8bS)-8-bromo-1,8b-dihydroxy-6-methoxy-3a-(4-methoxyphenyl)-3-phenyl-2,3,3a,8b-tetrahydro-1H-cyclopenta[b]benzofuran-2-carboxylate], for which, in “in vitro”, the CC50 at 24 h was determined as 787 nM and the CC50 at 48 h worked out at 114 nM. In the data set with HEV-3 replicon p6-Gluc (Hepatitis E virus, HepG2, 24 h), this compound registered an EC50 of 83.6 nM and an EC90 of 343 nM. Further, in the data set with HEV-3 replicon p6-Gluc (Hepatitis E virus, HepG2, 48 h), the EC50 came to 44.7 nM and it took 305 nM to reach the 90% level (EC90).

In “in vitro”, `COC(=O)[C@H]1[C@@H](O)[C@@]2(O)c3c(OC)cc(OC)cc3O[C@@]2(c2ccc(Br)cc2)[C@@H]1c1ccccc1` (racemic) [11bb, (±)-Methyl (1R,2R,3S,3aR,8bS)-3a-(4-bromophenyl)-1,8b-dihydroxy-6,8-dimethoxy-3-phenyl-2,3,3a,8b-tetrahydro-1H-cyclopenta[b]benzofuran-2-carboxylate] displayed a CC50 at 24 h of 420 nM and a CC50 at 48 h of 27.1 nM. Besides, in the data set on HEV-3 replicon p6-Gluc (Hepatitis E virus, HepG2, 24 h), the response was half-maximal at 7.3 nM (EC50) and the 90% effect level (EC90) was put at 158 nM. In the data set on HEV-3 replicon p6-Gluc (Hepatitis E virus, HepG2, 48 h), this compound yielded an EC50 of 9.4 nM and an EC90 of 91.3 nM.

With `COC(=O)[C@H]1[C@@H](O)[C@@]2(O)c3c(Br)cc(Br)cc3O[C@@]2(c2ccc(OC)cc2)[C@@H]1c1ccccc1` (racemic) [9e, (±)-Methyl (1R,2R,3S,3aR,8bS)-6,8-dibromo-1,8b-dihydroxy-3a-(4-methoxyphenyl)-3-phenyl-2,3,3a,8b-tetrahydro-1H-cyclopenta[b]benzofuran-2-carboxylate], in the data set “in vitro”, the CC50 at 24 h was 766 nM and the CC50 at 48 h is 90.2 nM. In the data set with HEV-3 replicon p6-Gluc (Hepatitis E virus, HepG2, 24 h), a half-maximal effect (EC50) was put at 36.1 nM and the EC90 was determined as 362 nM. In the data set on HEV-3 replicon p6-Gluc (Hepatitis E virus, HepG2, 48 h), this compound gave an EC50 of 33.2 nM and an EC90 of 282 nM.

As for `COC(=O)[C@H]1[C@@H](O)[C@@]2(O)c3c(OC)cc(OC)cc3O[C@@]2(c2ccc(Cl)cc2)[C@@H]1c1ccccc1` (racemic) [9a, (±)-Methyl (1R,2R,3S,3aR,8bS)-3a-(4-chlorophenyl)-1,8b-dihydroxy-6,8-dimethoxy-3-phenyl-2,3,3a,8b-tetrahydro-1H-cyclopenta[b]benzofuran-2-carboxylate], in the data set “in vitro”, the CC50 at 24 h was determined as 513 nM and the CC50 at 48 h was 38.8 nM. In the data set with HEV-3 replicon p6-Gluc (Hepatitis E virus, HepG2, 24 h), the EC50 is 19.4 nM and it took 140 nM to reach the 90% level (EC90). In the data set on HEV-3 replicon p6-Gluc (Hepatitis E virus, HepG2, 48 h), this compound yielded an EC50 of 16.8 nM and an EC90 of 105 nM.

Regarding `COC(=O)[C@H]1[C@@H](O)[C@@]2(O)c3c(OC)cc(F)cc3O[C@@]2(c2ccc(OC)cc2)[C@@H]1c1ccccc1` (racemic) [9i, (±)-Methyl (1R,2R,3S,3aR,8bS)-6-fluoro-1,8b-dihydroxy-8-methoxy-3a-(4-methoxyphenyl)-3-phenyl-2,3,3a,8b-tetrahydro-1H-cyclopenta[b]benzofuran-2-carboxylate], the CC50 in “in vitro” is more than 1000 nM. In “in vitro”, the CC50 at 48 h is 904 nM. The EC50 was more than 1000 nM in the data set with HEV-3 replicon p6-Gluc (Hepatitis E virus, HepG2, 24 h) and 732 nM in the data set with HEV-3 replicon p6-Gluc (Hepatitis E virus, HepG2, 48 h). Besides, the EC90 in the data set on HEV-3 replicon p6-Gluc (Hepatitis E virus, HepG2, 24 h) is more than 1000 nM; in the data set with HEV-3 replicon p6-Gluc (Hepatitis E virus, HepG2, 24 h, read-out: HEV, EC90 (24 h, nM)), more than 1000 nM; in the data set on HEV-3 replicon p6-Gluc (Hepatitis E virus, HepG2, 48 h) it was more than 1000 nM; with HEV-3 replicon p6-Gluc (Hepatitis E virus, HepG2, 48 h, read-out: HEV, EC90 (48 h, nM)2), more than 1000 nM.

For the compound `COc1cc(OC)c2c(c1)O[C@@]1(c3ccc(Cl)cc3)[C@H](c3ccccc3)[C@@H](C(=O)N(C)C)[C@@H](O)[C@@]21O` (racemic) [14aa, (±)-(1R,2R,3S,3aR,8bS)-3a-(4-chlorophenyl)-1,8b-dihydroxy-6,8-dimethoxy-N,N-dimethyl-3-phenyl-2,3,3a,8b-tetrahydro-1H-cyclopenta[b]benzofuran-2-carboxamide], in “in vitro”, the CC50 at 24 h is 390 nM and the CC50 at 48 h was determined as 22.7 nM. In the data set on HEV-3 replicon p6-Gluc (Hepatitis E virus, HepG2, 24 h), this compound yielded an EC50 of 7.2 nM and an EC90 of 174 nM. Further, in the data set with HEV-3 replicon p6-Gluc (Hepatitis E virus, HepG2, 48 h), the EC50 came to 8.9 nM and the EC90 is 102 nM.

In “in vitro”, `COC(=O)[C@H]1[C@@H](O)[C@@]2(O)c3c(Cl)cc(Cl)cc3O[C@@]2(c2ccc(Br)cc2)[C@@H]1c1ccccc1` (racemic) [9db, (±)-Methyl (1R,2R,3S,3aR,8bS)-3a-(4-bromophenyl)-6,8-dichloro-1,8b-dihydroxy-3-phenyl-2,3,3a,8b-tetrahydro-1H-cyclopenta[b]benzofuran-2-carboxylate] came in with a CC50 at 24 h of 389 nM and a CC50 at 48 h of 48 nM. In addition, in the data set with HEV-3 replicon p6-Gluc (Hepatitis E virus, HepG2, 24 h), the EC50 was determined as 29.6 nM and the EC90 stood at 128 nM. In the data set on HEV-3 replicon p6-Gluc (Hepatitis E virus, HepG2, 48 h), this compound yielded an EC50 of 14.7 nM and an EC90 of 124 nM.

In “in vitro”, `COCOc1cc(F)c2c(c1)O[C@@]1(c3ccc(OC)cc3)[C@H](c3ccccc3)[C@@H](C(=O)OC)[C@@H](O)[C@@]21O` (racemic) [9na, (±)-Methyl (1R,2R,3S,3aR,8bS)-8-fluoro-1,8b-dihydroxy-6-(methoxymethoxy)-3a-(4-methoxyphenyl)-3-phenyl-2,3,3a,8b-tetrahydro-1H-cyclopenta[b]benzofuran-2-carboxylate] showed a CC50 at 24 h of 912 nM and a CC50 at 48 h of 236 nM. In addition, in the data set on HEV-3 replicon p6-Gluc (Hepatitis E virus, HepG2, 24 h), the EC50 came to 202 nM and the EC90 is more than 1000 nM. In the data set with HEV-3 replicon p6-Gluc (Hepatitis E virus, HepG2, 48 h), this compound displayed an EC50 of 146 nM and an EC90 of 873 nM.

In the data set “in vitro”, `CONC(=O)[C@H]1[C@@H](O)[C@@]2(O)c3c(Cl)cc(Cl)cc3O[C@@]2(c2ccc(OC)cc2)[C@@H]1c1ccccc1` (racemic) [14da, (±)-(1R,2R,3S,3aR,8bS)-6,8-Dichloro-1,8b-dihydroxy-N-methoxy-3a-(4-methoxyphenyl)-3-phenyl-2,3,3a,8b-tetrahydro-1H-cyclopenta[b]benzofuran-2-carboxamide] came in with a CC50 at 24 h of 511 nM and a CC50 at 48 h of 31.8 nM. In the data set with HEV-3 replicon p6-Gluc (Hepatitis E virus, HepG2, 24 h), the midpoint of the response, the EC50, lay at 8.6 nM and the EC90 is 172 nM. In the data set on HEV-3 replicon p6-Gluc (Hepatitis E virus, HepG2, 48 h), the EC50 is 9.8 nM and it took 134 nM to reach the 90% level (EC90).

With `COC(=O)[C@H]1[C@@H](O)[C@@]2(O)c3c(OC)cc(OC)cc3O[C@@]2(c2ccc(OC)cc2)[C@@H]1c1ccccc1` (racemic) [(±)-methyl rocaglate (11bc), (±)-Methyl (1R,2R,3S,3aR,8bS)-1,8b-dihydroxy-6,8-dimethoxy-3a-(4-methoxyphenyl)-3-phenyl-2,3,3a,8b-tetrahydro-1H-cyclopenta[b]benzofuran-2-carboxylate, reference compound], in the data set “in vitro”, the CC50 at 24 h stood at 690 nM and the CC50 at 48 h came out at 65.3 nM. In the data set with HEV-3 replicon p6-Gluc (Hepatitis E virus, HepG2, 24 h), this compound returned an EC50 of 28.4 nM and an EC90 of 631 nM. In the data set on HEV-3 replicon p6-Gluc (Hepatitis E virus, HepG2, 48 h), this compound yielded an EC50 of 29.9 nM and an EC90 of 188 nM.

In the data set “in vitro”, `COC(=O)[C@H]1[C@@H](O)[C@@]2(O)c3c(Cl)cc(OC)cc3O[C@@]2(c2ccc(OC)cc2)[C@@H]1c1ccccc1` (racemic) [9j, (±)-Methyl (1R,2R,3S,3aR,8bS)-8-chloro-1,8b-dihydroxy-6-methoxy-3a-(4-methoxyphenyl)-3-phenyl-2,3,3a,8b-tetrahydro-1H-cyclopenta[b]benzofuran-2-carboxylate] had a CC50 at 24 h of 832 nM and a CC50 at 48 h of 148 nM. In the data set on HEV-3 replicon p6-Gluc (Hepatitis E virus, HepG2, 24 h), this compound registered an EC50 of 92.6 nM and an EC90 of 577 nM. Further, in the data set on HEV-3 replicon p6-Gluc (Hepatitis E virus, HepG2, 48 h), the EC50 stood at 75.7 nM and the 90% effect level (EC90) was put at 394 nM.

As to `COc1ccc([C@@]23Oc4cc(OC)cc(OC)c4[C@]2(O)[C@H](O)[C@H](C(=O)N(C)C)[C@H]3c2ccccc2)cc1` (racemic) [(±)-rocaglamide (rac-1b), (±)-(1R,2R,3S,3aR,8bS)-1,8b-Dihydroxy-6,8-dimethoxy-3a-(4-methoxyphenyl)-N,N-dimethyl-3-phenyl-2,3,3a,8b-tetrahydro-1H-cyclopenta[b]benzofuran-2-carboxamide, reference compound], in “in vitro”, the CC50 at 24 h was 550 nM and the CC50 at 48 h was determined as 44.5 nM. In the data set with HEV-3 replicon p6-Gluc (Hepatitis E virus, HepG2, 24 h), this compound displayed an EC50 of 27.8 nM and a concentration for an effect of 90% (EC90) of 213 nM. Moreover, in the data set with HEV-3 replicon p6-Gluc (Hepatitis E virus, HepG2, 48 h), a half-maximal response (EC50) required 21 nM and the EC90 was 201 nM.

As to `COC(=O)[C@H]1[C@@H](O)[C@@]2(O)c3c(Br)cc(Cl)cc3O[C@@]2(c2ccc(OC)cc2)[C@@H]1c1ccccc1` (racemic) [9g, (±)-Methyl (1R,2R,3S,3aR,8bS)-8-bromo-6-chloro-1,8b-dihydroxy-3a-(4-methoxyphenyl)-3-phenyl-2,3,3a,8b-tetrahydro-1H-cyclopenta[b]benzofuran-2-carboxylate], in “in vitro”, the CC50 at 24 h turned out to be 812 nM and the CC50 at 48 h was 101 nM. In the data set on HEV-3 replicon p6-Gluc (Hepatitis E virus, HepG2, 24 h), this compound showed an EC50 of 52.1 nM and an EC90 of 482 nM. For the same compound, in the data set with HEV-3 replicon p6-Gluc (Hepatitis E virus, HepG2, 48 h), the EC50 was 37.9 nM and the EC90 came out at 365 nM.

For the compound “(±)-(1R,2R,3S,3aR,8bS)-8-Bromo-6-chloro-1,8b-dihydroxy-N-methoxy-3a-(4-methoxyphenyl)-3-phenyl-2,3,3a,8b-tetrahydro-1H-cyclopenta[b]benzofuran-2-carboxamide [14g]”, the EC50 in the data set with HEV-3 replicon p6-Gluc (read-out: EC50) was 4.1 nM and 5.5 nM.

On to “(±)-(1R,2R,3S,3aR,8bS)-3a-(4-fluorophenyl)-1,8b-dihydroxy-N,6,8-trimethoxy-3-phenyl-2,3,3a,8b-tetrahydro-1H-cyclopenta[b]benzofuran-2-carboxamide [14bab]”, for which, in the data set with HEV-3 replicon p6-Gluc (read-out: EC50), the EC50 is 53.7 nM and 52.9 nM. The EC90 in the data set on HEV-3 replicon p6-Gluc (read-out: EC90) is 338 nM and 670 nM.

Consider “(±)-(1R,2R,3S,3aR,8bS)-3a-(4-chlorophenyl)-1,8b-dihydroxy-N,6,8-trimethoxy-3-phenyl-2,3,3a,8b-tetrahydro-1H-cyclopenta[b]benzofuran-2-carboxamide [14ab]”, for which, in the data set with HEV-3 replicon p6-Gluc (read-out: EC50), the EC50 is 2.8 nM and 2.3 nM. Moreover, the EC90 in the data set on HEV-3 replicon p6-Gluc (read-out: EC90) was 18.2 nM and 23.8 nM.
